The source made the active and inactive calls. The rule behind the calls is not given here.
Columns and labels:
[1] = Anti-neuroinflammatory activity in […] cells assessed as inhibition of LPS-induced NO production preincubated for 1 hr followed by LPS stimulation measured after 24 hrs by Griess reagent based assay; type: functional, cell-based; settings: BV-2
[2] = tested on: SH-SY5Y; test: Neuroprotection against L-glutamic acid-induced cell death in human SH-SY5Y cells assessed as increase in cell viability preincubated for 1 hr followed by L-glutamic acid addition and measured after 24 hrs by MTT assay; type: functional, cell-based
[3] = tested on: SH-SY5Y; test: Neuroprotection against H2O2-induced cell death in human SH-SY5Y cells assessed as increase in cell viability preincubated for 1 hr followed by H2O2 addition and measured after 24 hrs by MTT assay; type: functional, cell-based
[4] = biological target: T1, Amine oxidase [flavin-containing] A (Homo sapiens, UniProt P21397); test: Inhibition of recombinant human MAO-A expressed in baculovirus infected BTI insect cells using p-tyramine as substrate preincubated for 60 mins followed by substrate addition and measured after 30 mins by horse-radish peroxidase-coupled amplex red reagent-based fluorescence spectrophotometric method
T1 sequence (P21397 whole entry): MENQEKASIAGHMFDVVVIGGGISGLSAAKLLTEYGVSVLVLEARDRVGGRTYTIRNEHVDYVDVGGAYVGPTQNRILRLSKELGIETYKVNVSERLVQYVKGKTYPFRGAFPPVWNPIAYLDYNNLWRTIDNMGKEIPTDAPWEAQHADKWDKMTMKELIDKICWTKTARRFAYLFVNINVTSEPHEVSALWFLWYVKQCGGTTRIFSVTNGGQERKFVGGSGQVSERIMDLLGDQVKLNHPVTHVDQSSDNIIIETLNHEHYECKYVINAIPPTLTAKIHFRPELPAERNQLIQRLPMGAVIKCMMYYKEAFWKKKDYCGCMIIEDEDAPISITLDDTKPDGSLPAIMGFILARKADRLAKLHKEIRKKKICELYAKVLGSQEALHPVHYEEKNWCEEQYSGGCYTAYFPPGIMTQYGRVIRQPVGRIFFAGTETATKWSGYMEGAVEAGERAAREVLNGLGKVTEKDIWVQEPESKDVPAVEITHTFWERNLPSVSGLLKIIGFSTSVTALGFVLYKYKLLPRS

[5] = biological target: T2, Amine oxidase [flavin-containing] B (Homo sapiens, UniProt P27338); test: Inhibition of recombinant human MAO-B expressed in baculovirus infected BTI insect cells using p-tyramine as substrate preincubated for 60 mins followed by substrate addition and measured after 30 mins by horse-radish peroxidase-coupled amplex red reagent-based fluorescence spectrophotometric method
T2 sequence (P27338 whole entry): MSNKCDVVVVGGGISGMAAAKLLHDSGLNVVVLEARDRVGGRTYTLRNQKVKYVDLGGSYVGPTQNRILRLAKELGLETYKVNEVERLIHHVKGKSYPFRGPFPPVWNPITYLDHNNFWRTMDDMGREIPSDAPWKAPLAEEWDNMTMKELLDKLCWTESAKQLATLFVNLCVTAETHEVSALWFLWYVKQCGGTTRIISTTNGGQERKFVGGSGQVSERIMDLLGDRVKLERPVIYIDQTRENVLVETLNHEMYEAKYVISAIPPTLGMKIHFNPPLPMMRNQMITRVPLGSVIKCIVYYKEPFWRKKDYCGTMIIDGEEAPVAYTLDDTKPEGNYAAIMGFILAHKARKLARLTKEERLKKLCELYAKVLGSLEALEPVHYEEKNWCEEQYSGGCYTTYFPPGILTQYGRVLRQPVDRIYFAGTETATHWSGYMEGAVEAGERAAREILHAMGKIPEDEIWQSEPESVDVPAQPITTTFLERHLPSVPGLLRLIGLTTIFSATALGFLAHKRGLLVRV

[6] = species on record: Homo sapiens; test: Selectivity index, ratio of IC50 for recombinant human MAO-A expressed in baculovirus infected BTI insect cells to IC50 for recombinant human MAO-B expressed in baculovirus infected BTI insect cells
[7] = tested on: Mus musculus; test: (§1) Anti-parkinson's activity in MPTP-induced C57BL/6 mouse model of Parkinson's disease assessed as restoration of motor ability by measuring increase in latency to fall at 10 mg/kg, po pretreated for 30 mins followed by MPTP challenge for 7 days and subsequent compound redosing for 5 days measured post-last dose by rotarod test; type: functional, organism-based
[8] = tested on: Mus musculus; test: (§2) Anti-neuroinflammatory activity in MPTP-induced C57BL/6 mouse of Parkinson's disease assessed as increase in tyrosine hydroxylase positive cells in substantia nigra at 10 mg/kg, po pretreated for 30 mins followed by MPTP challenge for 7 days and subsequent compound redosing for 5 days measured post-last dose by DAB staining based immunohistochemistry method; type: functional, organism-based
[9] = tested on: Mus musculus; test: as §2, with “activity in po dosed MPTP-induced C57BL/6” for “activity in MPTP-induced C57BL/6”, “substantia nigra pretreated for” for “substantia nigra at 10 mg/kg, po pretreated for”; type: functional, organism-based
[10] = tested on: Mus musculus; test: (§3) Ex vivo Inhibition of MAO-B in mid brain homogenates of MPTP-induced C57BL/6 mouse model of Parkinson's disease at 50 mg/kg, ig using p-tyramine as substrate preincubated for 60 mins followed by substrate addition and measured after 30 mins by horse-radish peroxidase-coupled/amplex red reagent-based fluorescence spectrophotometric method; type: functional, organism-based
[11] = tested on: Mus musculus; test: Anti-neuroinflammatory activity in po dosed MPTP-induced C57BL/6 mouse model of Parkinson's disease assessed as increase in tyrosine hydroxylase expression in mid brain pretreated for 30 mins followed by MPTP challenge for 7 days and subsequent compound redosing for 5 days measured post-last dose by DAB staining based immunohistochemistry method; type: functional, organism-based
[12] = tested on: Mus musculus; test: as §3, with “inhibition” for “Inhibition”, “MAO-A” for “MAO-B”; type: functional, organism-based
[13] = tested on: Mus musculus; test: Anti-neuroinflammatory activity in C57BL/6 mouse assessed as reduction in MPTP-induced COX2 expression in mid brain at 50 mg/kg, po pretreated for 30 mins followed by MPTP challenge for 7 days and subsequent compound redosing for 5 days measured post-last dose by Western blotting analysis; type: functional, organism-based
[14] = tested on: Mus musculus; test: as §1, with “activity in po dosed MPTP-induced C57BL/6” for “activity in MPTP-induced C57BL/6”, “to fall pretreated for” for “to fall at 10 mg/kg, po pretreated for”; type: functional, organism-based
[15] = tested on: Mus musculus; test: Anti-neuroinflammatory activity in C57BL/6 mouse assessed as reduction in MPTP-induced iNOS expression in mid brain at 50 mg/kg, po pretreated for 30 mins followed by MPTP challenge for 7 days and subsequent compound redosing for 5 days measured post-last dose by Western blotting analysis; type: functional, organism-based
[16] = tested on: Mus musculus; test: as §1, with “50” for “10”; type: functional, organism-based

Row | Compound | IC50 [1] | EC50 [2] | EC50 [3] | IC50 [4] | IC50 [5] | Ratio IC50 [6] | further results
1 | O=C(CCN1CCOCC1)c1cc2ccc(O)cc2oc1=O | 0.01 µM | 22.9 µM | > 100 µM | 111 µM | 151 µM | 0.73 | 
2 | COc1ccc2cc(C(=O)CCN3CCCC3)c(=O)oc2c1 | > 100 µM |  | > 100 µM | 53.1 µM | 18.1 µM | 2.93 | 
3 | COc1cc(/C=C/C(=O)CC(=O)/C=C/c2ccc(O)c(OC)c2)ccc1O [CURCUMIN] | 1.58 µM |  |  |  |  |  | 
4 | COc1ccc2cc(C(=O)CCN(C)C)c(=O)oc2c1 | > 100 µM |  | > 100 µM | 7.63 µM | 21.1 µM | 0.36 | 
5 | COc1ccc2cc(C(=O)CCN3CCOCC3)c(=O)oc2c1 | 8.61 µM | > 100 µM |  | 2.46 µM | 4.62 µM | 0.53 | 
6 | O=C(CCN1CCN(Cc2ccccc2)CC1)c1cc2ccc(O)cc2oc1=O | 3.64 µM | > 100 µM | 1.82 µM | 108 µM | 41.1 µM | 2.63 | 
7 | O=C(CCN1CCCC1)c1cc2cc(Br)c(O)c(Br)c2oc1=O | > 100 µM |  | 75.1 µM | 155 µM | > 200 µM |  | 
8 | Cc1cc(O)cc2oc(=O)c(C(=O)CCN3CCCC3)cc12 | > 100 µM | > 100 µM |  | 173 µM | 43.7 µM | 3.97 | 
9 | Cc1cc(O)cc2oc(=O)c(C(=O)CCN3CCOCC3)cc12 | 0.28 µM | > 100 µM | > 100 µM | 98.5 µM | 36 µM | 2.74 | 
10 | C#CCN(C)[C@H](C)Cc1ccccc1 |  |  |  |  |  |  | Activity [7]: Active; Activity [8]: Active
11 | CN(C)CCC(=O)c1cc2cc(Br)c(O)c(Br)c2oc1=O | > 100 µM |  | > 100 µM | > 200 µM | > 200 µM |  | 
12 | CCN(CC)CCC(=O)c1cc2ccc(O)cc2oc1=O | 2.67 µM | 13 µM |  | 89.9 µM | 94 µM | 0.96 | 
13 | O=C(CCN1CCOCC1)c1cc2cc(Br)c(O)c(Br)c2oc1=O | 24.6 µM |  | > 100 µM | 34.1 µM | 14.1 µM | 2.42 | 
14 | Cc1cc(O)cc2oc(=O)c(C(=O)CCN(C)C)cc12 | 0.22 µM | 25.7 µM | 19.7 µM | > 200 µM | 3.66 µM | > 100 | Activity [9]: Active; inhibition [10]: Active; Activity [11]: Active; inhibition [12]: inactive; Activity [13]: Active; Activity [14]: Dose-dependent effect; Activity [15]: Active; Activity [16]: Active
15 | O=C(CCN1CCCCC1)c1cc2ccc(O)cc2oc1=O | 2.13 µM | 45.4 µM | > 100 µM | > 200 µM | > 200 µM |  | 
16 | O=C(CCN1CCCC1)c1cc2ccc(O)cc2oc1=O | 0.61 µM | > 100 µM |  | > 200 µM | > 200 µM |  | 
17 | Cc1cc(O)cc2oc(=O)c(C(=O)CCN3CCCCC3)cc12 | 0.11 µM | > 100 µM | 83.7 µM | 136 µM | 119 µM | 1.14 | 
18 | CN(C)CCC(=O)c1cc2ccc(O)cc2oc1=O | 0.56 µM | > 100 µM |  | 110 µM | 71.4 µM | 1.53 | 
19 | COc1ccc2cc(C(=O)CCN3CCCCC3)c(=O)oc2c1 | 0.02 µM |  | > 100 µM | 12.2 µM | 20.1 µM | 0.61 | 
